Laboratory results reported in US8313736B2, “Chemically stable ingredients as lemon odorant” (Firmenich SA, priority 2008, dated 2012).

Experiments:
[1] = system: Mammalian Erythrocyte Micronucleus; assay: In vivo test for clastogenic effects, Mammalian Erythrocyte Micronucleus Test (OECD 474)
From the text: In vivo test for clastogenic effects performed on 3,6,7-trimethyl-2,6-octadienenitrile and 3,7-dimethyl-2,6-octadienenitrile under the conditions required by the standard test protocol for Mammalian Erythrocyte Micronucleus Test (OECD 474, OECD web site http://lysander.sourceoecd.org/v1=155221/c1=19/nw=1/rpsv/ij/oecdjournals/1607310x/v1n 4/s39/p1) gave the following results: • 3,6,7-trimethyl-2,6-octadienenitrile: the test was negative (i.e. no perceived toxicity) in the dose range between 200-1200 mg/kg. • 3,7-dimethyl-2,6-octadienenitrile: the test was positive (i.e. perceived toxicity) in the dose range between 500-1250 mg/kg (overlapping the dose range of the invention compound herein above). This ingredient has been banned for its clastogenic effect.

[2] = reason for ban; cited from earlier work

CC(=CC#N)CCC(C)=C(C)C [3,6,7-trimethyl-2,6-octadienenitrile]
Clastogenicity (induction of chromosome-damages) ([1]; E and Z isomers or a mixture thereof): not clastogenic | Mammalian Erythrocyte Micronucleus Test result (clastogenic effects) ([1]; dose range between 200-1200 mg/kg): negative

CC(C)=CCCC(C)=CC#N [3,7-dimethyl-2,6-octadienenitrile]
Mammalian Erythrocyte Micronucleus Test result (clastogenic effects) ([1]; dose range between 500-1250 mg/kg): positive | Mutagenicity [2]: mutagenic
